Measured values reported in patent US5210193A, “Piperazine derivatives” (American Cyanamid Company, priority 1990, dated 1993).
Converted amounts (≈) assume the structure as drawn. Where a name gives a salt, the structure may show the parent alone. Read-outs that look alike come from different tables or passages of the source.

Columns and labels:
Assay in all cases: in vitro antibacterial MIC, agar plate dilution
Format in all cases: cell-based
[1] = system: Proteus rettgeri IO 83-21; details: Providencia rettgeri, IO8321, 18 h, 35° C., read-out: MIC
Outline: (§1)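 Agar plate dilution on Mueller-Hinton agar, inoculum approximately 10^4 CFU per organism applied with a Steers replicator. MIC (mcg/ml) is the lowest compound concentration inhibiting visible growth after 18 hours at 35° C.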

[2] = system: Citrobacter div. K 82-24; details: 35° C.
Outline: as §1

[3] = system: Streptococcus faecalis UCI 85-19; details: 35° C.
Outline: as §1

[4] = system: Serratia marcescens MOR 84-41; details: Serratia marcescens, MOR8441, 18 h, 35° C., read-out: MIC
Outline: as §1

[5] = system: Escherichia coli CMC 84-11; details: 18 hours, 35° C.
Outline: as §1

[6] = system: Pseudomonas aeruginosa VGH 84-3; details: Pseudomonas aeruginosa, VGH843, 18 h, 35° C., read-out: MIC
Outline: as §1

[7] = system: Pseudomonas aeruginosa CMC 83-20; details: 35° C.
Outline: as §1

[8] = system: Proteus rettgeri CMC 84-41; details: 18 hours, 35° C.
Outline: as §1

[9] = system: Staphylococcus aureus Smith; details: 35° C.
Outline: as §1

[10] = system: Staphylococcus aureus K 82-26; details: 35° C.
Outline: as §1

[11] = system: Pseudomonas aeruginosa K 84-16; details: Pseudomonas aeruginosa, K8416, 18 h, 35° C., read-out: MIC
Outline: as §1

[12] = system: Klebsiella pneumoniae IO 83-5; details: Klebsiella pneumoniae, IO835, 18 h, 35° C., read-out: MIC
Outline: as §1

[13] = system: Escherichia coli VGH 84-19; details: Escherichia coli, VGH8419, 18 h, 35° C., read-out: MIC
Outline: as §1

[14] = system: Escherichia coli CMC 84-50; details: Escherichia coli, CMC8450, 18 h, 35° C., read-out: MIC
Outline: as §1

[15] = system: Serratia marcescens IO 83-63; details: IO8363, 18 hours, 35° C.
Outline: as §1

[16] = system: Morganella morganii CMC 84-38; details: 35° C.
Outline: as §1

[17] = system: Staphylococcus aureus VGH 84-47; details: 35° C.
Outline: as §1

[18] = system: Escherichia coli MOR 84-20; details: Escherichia coli, MOR8420, 18 h, 35° C., read-out: MIC
Outline: as §1

[19] = system: Streptococcus faecalis CMC 83-120; details: Enterococcus faecalis, CMC83120, 18 h, 35° C., read-out: MIC
Outline: as §1

[20] = system: Klebsiella pneumoniae CMC 84-31; details: Klebsiella pneumoniae, CMC8431, 18 h, 35° C., read-out: MIC
Outline: as §1

[21] = system: Serratia marcescens K 84-18; details: 18 hours, 35° C.
Outline: as §1

[22] = system: Staphylococcus aureus ATTC 29213; details: 35° C.
Outline: as §1

[23] = system: Staphylococcus aureus CMC 83-131; details: Staphylococcus aureus, CMC83131, 18 h, 35° C., read-out: MIC
Outline: as §1

[24] = system: Enterobacter cloacae MOR 84-30; details: Enterobacter cloacae, MOR8430, 18 h, 35° C., read-out: MIC
Outline: as §1

[25] = system: Serratia marcescens CMC 83-74; details: Serratia marcescens, CMC8374, 18 h, 35° C., read-out: MIC
Outline: as §1

[26] = system: Streptococcus faecalis UCI 85-30; details: Enterococcus faecalis, UCI8530, 18 h, 35° C., read-out: MIC
Outline: as §1

[27] = system: Morganella morganii CMC 84-37; details: Morganella morganii, CMC8437, 18 h, 35° C., read-out: MIC
Outline: as §1

[28] = system: Providencia stuarti CMC 83-3; details: Providencia, CMC833, 18 h, 35° C., read-out: MIC
Outline: as §1

[29] = system: Pseudomonas aeruginosa LL-1244; details: 35° C.
Outline: as §1

[30] = system: Streptococcus faecalis VGH 84-69; details: Enterococcus faecalis, VGH8469, 18 h, 35° C., read-out: MIC
Outline: as §1

[31] = system: Enterobacter cloacae K 84-10; details: 35° C.
Outline: as §1

[32] = system: Streptococcus faecalis VGH 84-65; details: 35° C.
Outline: as §1

[33] = system: Pseudomonas aeruginosa VGH 84-4; details: 35° C.
Outline: as §1

[34] = system: Escherichia coli LL 311; details: 35° C.
Outline: as §1

[35] = system: Serratia marcescens VGH 84-30; details: 35° C.
Outline: as §1

[36] = system: Morganella morganii VHG 84-12; details: Morganella morganii, VHG8412, 18 h, Morganella morganii VHG 84-12 (VGH 84-12 for Example 131), 35° C., read-out: MIC
Outline: as §1

[37] = system: Staphylococcus aureus VGH 84-45; details: 35° C.
Outline: as §1

[38] = system: Morganella morganii MOR 84-45; details: Morganella morganii, MOR8445, 18 h, 35° C., read-out: MIC
Outline: as §1

[39] = system: Enterobacter cloacae VGH 84-39; details: Enterobacter cloacae, VGH8439, 18 h, 35° C., read-out: MIC
Outline: as §1

[40] = system: Klebsiella pneumoniae MOR 84-24; details: Klebsiella pneumoniae, MOR8424, 18 h, 35° C., read-out: MIC
Outline: as §1

[41] = system: Escherichia coli ATCC 25922; details: 35° C.
Outline: as §1

[42] = Escherichia coli, ATCC25922, 18 h, read-out: MIC

## O=C(O)c1cn(C2CC2)c2cc(N3CCNC(C4CC4)C3)c(F)cc2c1=O (centres unmarked) [Example 96, 7-(3-Cyclopropyl-1-piperazinyl) -1-cyclopropyl-6-fluoro-1,4-dihydro-4-oxo-3-quinolinecarboxylic acid]
[1]
  MIC: 0.12 µg/mL (≈ 0.323 µM)
[2]; 18 hours
  MIC: 0.008 µg/mL (≈ 0.0215 µM)
[3]; 18 hours
  MIC: 0.5 µg/mL (≈ 1.35 µM)
[4]
  MIC: 0.06 µg/mL (≈ 0.162 µM)
[5]
  MIC: > 0.015 µg/mL
[6]
  MIC: 4 µg/mL (≈ 10.8 µM)
[7]; 18 hours
  MIC: 1 µg/mL (≈ 2.69 µM)
[8]
  MIC: 0.03 µg/mL (≈ 0.0808 µM)
[9]; Staphylococcus aureus, 18 h, read-out: MIC
  MIC: 0.06 µg/mL (≈ 0.162 µM)
[10]; 18 hours
  MIC: 0.25 µg/mL (≈ 0.673 µM)
[11]
  MIC: 2 µg/mL (≈ 5.38 µM)
[12]
  MIC: 0.03 µg/mL (≈ 0.0808 µM)
[13]
  MIC: 0.008 µg/mL (≈ 0.0215 µM)
[14]
  MIC: 0.015 µg/mL (≈ 0.0404 µM)
[15]
  MIC: 0.25 µg/mL (≈ 0.673 µM)
[16]; 18 hours
  MIC: 0.3 µg/mL (≈ 0.808 µM)
[17]; 18 hours
  MIC: 0.06 µg/mL (≈ 0.162 µM)
[18]
  MIC: 0.008 µg/mL (≈ 0.0215 µM)
[19]
  MIC: 1 µg/mL (≈ 2.69 µM)
[20]
  MIC: 0.015 µg/mL (≈ 0.0404 µM)
[21]
  MIC: > 0.015 µg/mL
[22]; 18 hours
  MIC: 0.25 µg/mL (≈ 0.673 µM)
[23]
  MIC: 0.25 µg/mL (≈ 0.673 µM)
[24]
  MIC: 0.25 µg/mL (≈ 0.673 µM)
[25]
  MIC: 4 µg/mL (≈ 10.8 µM)
[26]
  MIC: 2 µg/mL (≈ 5.38 µM)
[27]
  MIC: 0.03 µg/mL (≈ 0.0808 µM)
[28]
  MIC: 2 µg/mL (≈ 5.38 µM)
[29]; 18 hours
  MIC: 1 µg/mL (≈ 2.69 µM)
[30]
  MIC: 1 µg/mL (≈ 2.69 µM)
[31]; Enterobacter cloacae, K8410, 18 h, read-out: MIC
  MIC: 0.015 µg/mL (≈ 0.0404 µM)
[32]; Enterococcus faecalis, VGH8465, 18 h, read-out: MIC
  MIC: 0.5 µg/mL (≈ 1.35 µM)
[33]; Pseudomonas aeruginosa, VGH844, 18 h, read-out: MIC
  MIC: 1 µg/mL (≈ 2.69 µM)
[34]; 18 hours
  MIC: 0.03 µg/mL (≈ 0.0808 µM)
[35]; 18 hours
  MIC: 1 µg/mL (≈ 2.69 µM)
[36]
  MIC: 0.12 µg/mL (≈ 0.323 µM)
[37]; Staphylococcus aureus, VGH8445, 18 h, read-out: MIC
  MIC: 0.06 µg/mL (≈ 0.162 µM)
[38]
  MIC: 0.008 µg/mL (≈ 0.0215 µM)
[39]
  MIC: 0.015 µg/mL (≈ 0.0404 µM)
[40]
  MIC: 0.03 µg/mL (≈ 0.0808 µM)
[41]; [42]
  MIC: 0.015 µg/mL (≈ 0.0404 µM)

## O=C(O)c1cn(C2CC2)c2cc(N3CCNC(c4ccsc4)C3)c(F)cc2c1=O (centres unmarked) [Example 98, 1-Cyclopropyl-6-fluoro-1,4-dihydro-4-oxo-7-[3-(3-thienyl)-1-piperazinyl]-3-quinolinecarboxylic acid, monohydrochloride]
[1]
  MIC: 0.5 µg/mL
[2]; Citrobacter, DIV.K8224, 18 h, read-out: MIC
  MIC: 0.12 µg/mL
[3]; Enterococcus faecalis, UCI8519, 18 h, read-out: MIC
  MIC: 0.5 µg/mL
[4]
  MIC: 0.25 µg/mL
[5]; monohydrochloride
  MIC: 0.03 µg/mL
[6]
  MIC: 16 µg/mL
[7]; Pseudomonas aeruginosa, CMC8320, 18 h, read-out: MIC
  MIC: 4 µg/mL
[8]; monohydrochloride
  MIC: 0.12 µg/mL
[9]; 18 hours, monohydrochloride
  MIC: 0.03 µg/mL
[10]; Staphylococcus aureus, K8226, 18 h, read-out: MIC
  MIC: 0.12 µg/mL
[11]
  MIC: 4 µg/mL
[12]
  MIC: 0.25 µg/mL
[13]
  MIC: 0.12 µg/mL
[14]
  MIC: 0.12 µg/mL
[15]
  MIC: 1 µg/mL
[16]; Morganella morganii, CMC8438, 18 h, read-out: MIC
  MIC: 0.12 µg/mL
[17]; Staphylococcus aureus, VGH8447, 18 h, read-out: MIC
  MIC: 0.12 µg/mL
[18]
  MIC: 0.12 µg/mL
[19]
  MIC: 1 µg/mL
[20]
  MIC: 0.12 µg/mL
[21]; monohydrochloride
  MIC: 0.25 µg/mL
[22]; 18 hours, monohydrochloride
  MIC: 0.12 µg/mL
[22]; Staphylococcus aureus, ATTC29213, 18 h, read-out: MIC
  MIC: 0.06 µg/mL
[24]
  MIC: 1 µg/mL
[25]
  MIC: 8 µg/mL
[26]
  MIC: 1 µg/mL
[27]
  MIC: 0.06 µg/mL
[28]
  MIC: 8 µg/mL
[29]; Pseudomonas aeruginosa, LL1244, 18 h, read-out: MIC
  MIC: 2 µg/mL
[30]
  MIC: 0.5 µg/mL
[31]; 18 hours, monohydrochloride
  MIC: 0.06 µg/mL
[32]; 18 hours, monohydrochloride
  MIC: 0.5 µg/mL
[33]; 18 hours, monohydrochloride
  MIC: 2 µg/mL
[34]; Escherichia coli, LL311, 18 h, read-out: MIC
  MIC: 0.03 µg/mL
[35]; Serratia marcescens, VGH8430, 18 h, read-out: MIC
  MIC: 4 µg/mL
[36]
  MIC: 0.25 µg/mL
[37]; 18 hours, monohydrochloride
  MIC: 0.03 µg/mL
[38]
  MIC: 0.12 µg/mL
[39]
  MIC: 0.12 µg/mL
[40]
  MIC: 0.25 µg/mL
[41]; 18 hours, monohydrochloride
  MIC: 0.12 µg/mL
[41]; [42]
  MIC: 0.06 µg/mL
